Experimental data as given in patent US20220332710A1, “SOLID FORMS OF A GLYT1 INHIBITOR” (Boehringer Ingelheim International GmbH, priority 2019, published 2022).

Assay: Water sorption isotherm (dynamic vapor sorption)
Assay type: physicochemical
Settings: 25° C., maintained at 90% relative humidity for 6 hours under humid nitrogen purge
Description: FIG. 11 is a water sorption isotherm showing the water-uptake of Form II of Coumpound 1 and amorphous Coumpound 1 when stored at 25° C. at different relative humidities.
As discussed above, the invention relates to crystalline forms of Coumpound 1 described herein as Form I, Form II, or Form III; and mixtures of at least two of Form I, Form II, or Form III (“the crystalline compounds of the invention”). WO2013017657 makes no mention of any crystalline form of Compound, any method for preparing a crystalline form of Coumpound 1, or any of the properties of the crystalline forms of Coumpound 1 described herein. The compounds of the invention have advantageous properties (e.g., improved stability and reproducibility) as compared to the amorphous form of Coumpound 1 described in Example 1 herein and WO2013017657. Improvements over the amorphous form include, for example, lower hygroscopicity and decreased tendency to convert to a different solid form. For example, the water-uptake of amorphous Coumpound 1 at 25° C. is 1.4% when maintained at 90% relative humidity for 6 hours under humid nitrogen purge. […]
Water sorption isotherms are determined using a dynamic vapor sorption system (Advantage, DVS, London, UK). […]

water-uptake	SMILES
about 0.04%	CC(Oc1ccc(S(C)(=O)=O)cc1C(=O)N1CC2C[C@]2(c2cc(C(F)(F)F)on2)C1)C(F)(F)F (some centres unmarked) [Form II of Coumpound 1]
1.4%	CC(Oc1ccc(S(C)(=O)=O)cc1C(=O)N1CC2C[C@]2(c2cc(C(F)(F)F)on2)C1)C(F)(F)F (some centres unmarked) [amorphous Coumpound 1]
